SMILES strings stand for the structures. Where only a bound is given, the exact number is not on record here.

The target of the assay is CDK4 (Homo sapiens, UniProt P11802+Q16531). In words: CDK4 percentage degradation in Calu-1 cells (Table 6). Format: cell-based. Set-up: Cells that express cyclin D1-3 and CDK4/6 proteins were treated with heterobifunctional compounds; endogenous in cells; host or cells: Calu-1. Particulars: 16 hours; for inhibition at 0.04 µM: 40 nM; for inhibition at 0.2 µM: 200 nM. The procedure, abridged: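 Calu-1 cells exposed to heterobifunctional compounds at 40 nM or 200 nM for 16 h. Cyclin D1 and CDK4 levels measured by Western blot of RIPA lysates (BCA-normalised loading), bands quantified by densitometry and expressed as percentage degradation.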
Sequence of CDK4 (P11802 2-303 limits assumed): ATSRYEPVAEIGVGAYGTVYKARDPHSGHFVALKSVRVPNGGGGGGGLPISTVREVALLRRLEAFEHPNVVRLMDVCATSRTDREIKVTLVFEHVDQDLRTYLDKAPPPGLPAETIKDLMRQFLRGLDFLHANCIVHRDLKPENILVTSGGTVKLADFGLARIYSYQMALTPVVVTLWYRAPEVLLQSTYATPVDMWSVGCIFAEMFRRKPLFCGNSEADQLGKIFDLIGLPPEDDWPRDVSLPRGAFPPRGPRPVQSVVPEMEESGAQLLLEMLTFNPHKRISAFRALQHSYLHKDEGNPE
Sequence of CDK4 (P24385 whole entry partner): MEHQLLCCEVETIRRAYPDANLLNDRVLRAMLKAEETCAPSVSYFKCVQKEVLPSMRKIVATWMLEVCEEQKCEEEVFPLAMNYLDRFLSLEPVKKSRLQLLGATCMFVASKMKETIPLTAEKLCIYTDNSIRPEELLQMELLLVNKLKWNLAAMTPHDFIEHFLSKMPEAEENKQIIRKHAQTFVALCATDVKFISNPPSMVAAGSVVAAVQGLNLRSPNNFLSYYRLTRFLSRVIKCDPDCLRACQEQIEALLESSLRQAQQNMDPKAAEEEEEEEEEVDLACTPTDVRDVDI
Sequence of CDK4 (Q16531 2-1140 limits assumed): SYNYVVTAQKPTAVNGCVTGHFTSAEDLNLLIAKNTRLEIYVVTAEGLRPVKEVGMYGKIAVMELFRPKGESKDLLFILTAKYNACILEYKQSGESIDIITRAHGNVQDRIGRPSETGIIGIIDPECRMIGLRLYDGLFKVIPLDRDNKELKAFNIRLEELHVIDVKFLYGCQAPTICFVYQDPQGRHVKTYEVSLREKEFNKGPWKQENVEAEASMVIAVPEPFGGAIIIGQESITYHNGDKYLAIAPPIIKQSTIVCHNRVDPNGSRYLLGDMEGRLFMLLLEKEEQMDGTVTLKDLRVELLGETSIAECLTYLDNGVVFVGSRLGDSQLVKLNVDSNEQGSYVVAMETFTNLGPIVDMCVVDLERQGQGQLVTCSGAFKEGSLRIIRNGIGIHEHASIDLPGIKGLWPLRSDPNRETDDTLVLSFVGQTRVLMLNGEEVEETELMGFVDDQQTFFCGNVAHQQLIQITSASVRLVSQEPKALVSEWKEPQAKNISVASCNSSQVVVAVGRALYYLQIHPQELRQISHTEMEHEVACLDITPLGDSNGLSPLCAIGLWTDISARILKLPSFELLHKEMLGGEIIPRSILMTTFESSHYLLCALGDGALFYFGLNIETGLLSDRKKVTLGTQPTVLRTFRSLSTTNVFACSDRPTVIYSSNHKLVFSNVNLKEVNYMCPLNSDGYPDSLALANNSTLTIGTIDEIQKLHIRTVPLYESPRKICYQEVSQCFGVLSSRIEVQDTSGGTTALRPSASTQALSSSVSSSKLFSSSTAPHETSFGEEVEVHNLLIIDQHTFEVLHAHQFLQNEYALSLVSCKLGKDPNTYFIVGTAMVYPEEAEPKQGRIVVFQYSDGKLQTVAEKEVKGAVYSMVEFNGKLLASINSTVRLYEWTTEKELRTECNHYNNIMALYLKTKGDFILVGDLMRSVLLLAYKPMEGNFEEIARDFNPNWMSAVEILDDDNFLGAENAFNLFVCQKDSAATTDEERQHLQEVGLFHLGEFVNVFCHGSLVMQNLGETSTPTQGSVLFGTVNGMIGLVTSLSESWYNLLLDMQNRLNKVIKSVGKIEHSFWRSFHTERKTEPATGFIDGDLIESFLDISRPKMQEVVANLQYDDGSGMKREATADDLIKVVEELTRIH

For orientation: inhibition means how much of the control response was suppressed. A higher inhibition goes with strong suppression. Take `CNc1ccc(C(=O)Nc2ccc(N(C)C)nn2)c(NC2CC(COCC(=O)N3CCN(c4ccc(Nc5ncc6c(C)c(C(C)=O)c(=O)n(C7CCCC7)c6n5)nc4)CC3)C2)n1` (stereo not drawn) [CPD-164, 2-((3-((2-(4-(6-((6-acetyl-8-cyclopentyl-5-methyl-7-oxo-7,8-dihydropyrido[2,3-d]pyrimidin-2-yl)amino)pyridin-3-yl)piperazin-1-yl)-2-oxoethoxy)methyl)cyclobutyl)amino)-N-(6-(dimethylamino)pyridazin-3-yl)-6-(methylamino)nicotinamide]: the inhibition at 0.04 µM was 50 to 80% and the inhibition at 0.2 µM was above 80%.

As to `CC(=O)c1c(C)c2cnc(Nc3ccc(N4CCN(CC(=O)NCCC5CC(Nc6cc(F)ccc6C(=O)Nc6ccc(N(C)C)nn6)C5)CC4)cn3)nc2n(C2CCCC2)c1=O` (stereo not drawn) [CPD-258, 2-((3-(2-(2-(4-(6-((6-Acetyl-8-cyclopentyl-5-methyl-7-oxo-7,8-dihydropyrido[2,3-d]pyrimidin-2-yl)amino)pyridin-3-yl)piperazin-1-yl)acetamido)ethyl)cyclobutyl)amino)-N-(6-(dimethylamino)pyridazin-3-yl)-4-fluorobenzamide], the inhibition at 0.04 µM was in the range of 30 to 50% and the inhibition at 0.2 µM was 50 to 80%.

Regarding `CNc1ccc(C(=O)Nc2cn(C)c(C(C)C)n2)c(NC2CC3(CC(NC(=O)CN4CCN(c5ccc(Nc6ncc7c(C)c(C(C)=O)c(=O)n(C8CCCC8)c7n6)nc5)CC4)C3)C2)n1` (stereo not drawn) [CPD-195, 2-((6-(2-(4-(6-((6-acetyl-8-cyclopentyl-5-methyl-7-oxo-7,8-dihydropyrido[2,3-d]pyrimidin-2-yl)amino)pyridin-3-yl)piperazin-1-yl)acetamido)spiro[3.3]heptan-2-yl)amino)-N-(2-isopropyl-1-methyl-1H-imidazol-4-yl)-6-(methylamino)nicotinamide], the inhibition at 0.04 µM was below 30% and the inhibition at 0.2 µM fell in the range of 50 to 80%.

In the case of `CNc1ccc(C(=O)Nc2ccc(N(C)C)nn2)c(NC2CC(NC(=O)CN3CCN(c4ccc(Nc5ncc6c(C)c(C(C)=O)c(=O)n(C7CCCC7)c6n5)nc4)CC3)C2)n1` (stereo not drawn) [CPD-149, 2-((3-(2-(4-(6-((6-acetyl-8-cyclopentyl-5-methyl-7-oxo-7,8-dihydropyrido[2,3-d]pyrimidin-2-yl)amino)pyridin-3-yl)piperazin-1-yl)acetamido)cyclobutyl)amino)-N-(6-(dimethylamino)pyridazin-3-yl)-6-(methylamino)nicotinamide], the inhibition at 0.04 µM was in the range of 30 to 50% and the inhibition at 0.2 µM was 50 to 80%.

On to `CNc1ccc(C(=O)Nc2ccc(N(C)C)nn2)c(NC2CC3(C2)CN(C(=O)CN2CCN(c4ccc(Nc5ncc6c(C)c(C(C)=O)c(=O)n(C7CCCC7)c6n5)nc4)CC2)C3)n1` [CPD-97], for which the inhibition at 0.04 µM fell in the range of 50 to 80% and the inhibition at 0.2 µM is above 80%.

In the case of `CNc1ccc(C(=O)Nc2ccc(C#N)c(C3CC3)n2)c(NC2CC3(CC(NC(=O)CN4CCN(c5ccc(Nc6ncc7c(C)c(C(C)=O)c(=O)n(C8CCCC8)c7n6)nc5)CC4)C3)C2)n1` (stereo not drawn) [CPD-132, 2-((6-(2-(4-(6-((6-Acetyl-8-cyclopentyl-5-methyl-7-oxo-7,8-dihydropyrido[2,3-d]pyrimidin-2-yl)amino)pyridin-3-yl)piperazin-1-yl)acetamido)spiro[3.3]heptan-2-yl)amino)-N-(5-cyano-6-cyclopropylpyridin-2-yl)-6-(methylamino)nicotinamide], the inhibition at 0.04 µM was below 30% and the inhibition at 0.2 µM was in the range of 50 to 80%.

Molecule `CC(=O)c1c(C)c2cnc(Nc3ccc(N4CCN(CC(=O)NCC5CC(Nc6nc(C7CC7)ccc6C(=O)Nc6cc(C)n(C)n6)C5)CC4)cn3)nc2n(C2CCCC2)c1=O` (stereo not drawn) [CPD-213, 2-((3-((2-(4-(6-((6-acetyl-8-cyclopentyl-5-methyl-7-oxo-7,8-dihydropyrido[2,3-d]pyrimidin-2-yl)amino)pyridin-3-yl)piperazin-1-yl)acetamido)methyl)cyclobutyl)amino)-6-cyclopropyl-N-(1,5-dimethyl-1H-pyrazol-3-yl)nicotinamide] registered an inhibition at 0.04 µM of 30 to 50% and an inhibition at 0.2 µM of 50 to 80%.

Consider `CC(=O)c1c(C)c2cnc(Nc3ccc(N4CCN(CC(=O)NCCCCCNc5nc(C6CC6)ccc5C(=O)Nc5ccc(C)c(C6CC6)n5)CC4)cn3)nc2n(C2CCCC2)c1=O` [CPD-44, 2-((5-(2-(4-(6-((6-Acetyl-8-cyclopentyl-5-methyl-7-oxo-7,8-dihydropyrido[2,3-d]pyrimidin-2-yl)amino)pyridin-3-yl)piperazin-1-yl)acetamido)pentyl)amino)-6-cyclopropyl-N-(6-cyclopropyl-5-methylpyridin-2-yl)nicotinamide], for which the inhibition at 0.04 µM was below 30% and the inhibition at 0.2 µM was in the range of 30 to 50%.

`CNc1ccc(C(=O)Nc2cc(C)n(C)n2)c(NC2CC(NC(=O)CN3CCN(c4ccc(Nc5ncc6c(C)c(C(C)=O)c(=O)n(C7CCCC7)c6n5)nc4)CC3)C2)n1` (stereo not drawn) [CPD-197, 2-((3-(2-(4-(6-((6-acetyl-8-cyclopentyl-5-methyl-7-oxo-7,8-dihydropyrido[2,3-d]pyrimidin-2-yl)amino)pyridin-3-yl)piperazin-1-yl)acetamido)cyclobutyl)amino)-N-(1,5-dimethyl-1H-pyrazol-3-yl)-6-(methylamino)nicotinamide]: the inhibition at 0.04 µM was below 30% and the inhibition at 0.2 µM fell in the range of 30 to 50%.

The molecule `CNc1ccc(C(=O)Nc2cccc(OC)n2)c(NC2CC3(CC(NC(=O)CN4CCN(c5ccc(Nc6ncc7c(C)c(C(C)=O)c(=O)n(C8CCCC8)c7n6)nc5)CC4)C3)C2)n1` (stereo not drawn) [CPD-161, 2-((6-(2-(4-(6-((6-acetyl-8-cyclopentyl-5-methyl-7-oxo-7,8-dihydropyrido[2,3-d]pyrimidin-2-yl)amino)pyridin-3-yl)piperazin-1-yl)acetamido)spiro[3.3]heptan-2-yl)amino)-N-(6-methoxypyridin-2-yl)-6-(methylamino)nicotinamide] yielded an inhibition at 0.04 µM of 50 to 80% and an inhibition at 0.2 µM above 80%.

`[2H]C([2H])([2H])Nc1ccc(C(=O)Nc2ccc(N(C)C)nn2)c(NC2CC(NC(=O)CN3CCN(c4ccc(Nc5ncc6c(C)c(C(C)=O)c(=O)n(C7CCCC7)c6n5)nc4)CC3)C2)n1` (stereo not drawn) [CPD-245, 2-((3-(2-(4-(6-((6-acetyl-8-cyclopentyl-5-methyl-7-oxo-7,8-dihydropyrido[2,3-d]pyrimidin-2-yl)amino)pyridin-3-yl)piperazin-1-yl)acetamido)cyclobutyl)amino)-N-(6-(dimethylamino)pyridazin-3-yl)-6-((methyl-d3)amino)nicotinamide] yielded an inhibition at 0.04 µM of 30 to 50% and an inhibition at 0.2 µM of 50 to 80%.

Consider `CNc1ccc(C(=O)Nc2ccc(N(C)C)nn2)c(NCCCC2CN(C(=O)CN3CCN(c4ccc(Nc5ncc6c(C)c(C(C)=O)c(=O)n(C7CCCC7)c6n5)nc4)CC3)C2)n1` [CPD-102, 2-((3-(1-(2-(4-(6-((6-Acetyl-8-cyclopentyl-5-methyl-7-oxo-7,8-dihydropyrido[2,3-d]pyrimidin-2-yl)amino)pyridin-3-yl)piperazin-1-yl)acetyl)azetidin-3-yl)propyl)amino)-N-(6-(dimethylamino)pyridazin-3-yl)-6-(methylamino)nicotinamide], for which the inhibition at 0.04 µM was 50 to 80% and the inhibition at 0.2 µM lay in the range of 50 to 80%.

The values above are taken from US20260297081A1, “COMPOUNDS AND METHODS OF TREATING CANCERS” (Cullgen Inc., priority 2023, published 2026).
